Measured values as given in patent publication US7109338B2, “1,2-disubstituted 1,4-dihydro-4-oxoquinoline compounds” (priority 1999, dated 2006).
Converted amounts (≈) assume the structure as drawn.

Legend:
HRV39 (209) = experiment: Anti-rhinovirus spectrum (MTT), HRV39; type: cell-based, human rhinovirus; design: Anti-Rhinovirus activity, HRV39: unit not given here; settings: HRV39
[1] = test system: coxsackievirus type B4 (CB4,JVB); experiment: In vitro anti-picornavirus activity (MTT), CB4; type: cell-based; settings: HeLa cells, MTT method, 37° C.
HRV61 (6669-CV39) = experiment: Anti-rhinovirus spectrum (MTT), HRV61; type: cell-based, human rhinovirus; design: Anti-Rhinovirus activity, HRV61: unit not given here; settings: HRV61
HRV50(A2#58) = experiment: Anti-rhinovirus spectrum (MTT), HRV50; type: cell-based, human rhinovirus; design: Anti-Rhinovirus activity, HRV50: unit not given here; settings: HRV50
HRV5 = experiment: Anti-rhinovirus spectrum (MTT), HRV5; type: cell-based, human rhinovirus; design: Anti-Rhinovirus activity, HRV5: unit not given here; settings: HRV5
[2] = test system: echovirus type 11 (Echo 11, Gregory); experiment: In vitro anti-picornavirus activity (MTT), Echo 11; type: cell-based; settings: HeLa-S3 cells, MTT method, 37° C.
[3] = test system: clinical isolate (89229T); experiment: microbe, parasite or virus in culture; type: cell-based, human rhinovirus; design: Anti-Rhinovirus activity, Clinical isolated strain: unit not given here; settings: Clinical isolated strain
HRV21 (47) = experiment: Anti-rhinovirus spectrum (MTT), HRV21; type: cell-based, human rhinovirus; design: Anti-Rhinovirus activity, HRV21: unit not given here; settings: HRV21
HeLa-S3 cells = experiment: Cytotoxicity (MTT, without virus), HeLa-S3; settings: HeLa-S3, no virus, incubated for 4 days
HRV 2 (HGP) = experiment: Anti-rhinovirus activity (MTT), HRV2; type: cell-based, human rhinovirus; design: Anti-Rhinovirus activity, HRV2: unit not given here; settings: for IC50 HRV2: HeLa (Ohio strain) cells, MTT method, 33° C.
HRV10 (204-CV14) = experiment: Anti-rhinovirus spectrum (MTT), HRV10; type: cell-based, human rhinovirus; design: Anti-Rhinovirus activity, HRV10: unit not given here; settings: HRV10
[4] = test system: coxsackievirus type A7 (CA7); experiment: In vitro anti-picornavirus activity (MTT), CA7; type: cell-based; settings: HeLa-S3 cells, MTT method, 37° C.
[5] = test system: human rhinovirus type 1B (HRV 1B, B632); experiment: Anti-rhinovirus activity (MTT), HRV1B; type: cell-based; design: Anti-Rhinovirus activity, HRV1B: unit not given here; settings: for IC50 HRV1B: HeLa (Ohio strain) cells, MTT method, 33° C.
HRV31 (41F) = experiment: Anti-rhinovirus spectrum (MTT), HRV31; type: cell-based, human rhinovirus; design: Anti-Rhinovirus activity, HRV31: unit not given here; settings: HRV31
HRV41 (56110) = experiment: Anti-rhinovirus spectrum (MTT), HRV41; type: cell-based, human rhinovirus; design: Anti-Rhinovirus activity, HRV41: unit not given here; settings: HRV41
HRV14 (1059) = experiment: Anti-rhinovirus activity (MTT), HRV14; type: cell-based, human rhinovirus; design: Anti-Rhinovirus activity, HRV14: unit not given here; settings: for IC50 HRV 14: HeLa (Ohio strain) cells, MTT method, 33° C.
HeLa cells = experiment: Cytotoxicity (MTT, without virus), HeLa; settings: HeLa, no virus, incubated for 4 days
HRV16 (11757) = experiment: Anti-rhinovirus spectrum (MTT), HRV16; type: cell-based, human rhinovirus; design: Anti-Rhinovirus activity, HRV16: unit not given here; settings: HRV16
HRV3(FEB) = experiment: Anti-rhinovirus spectrum (MTT), HRV3; type: cell-based, human rhinovirus; design: Anti-Rhinovirus activity, HRV3: unit not given here; settings: HRV3
[6] = test system: Poliovirus type 1 (Polio 1, Sabin); experiment: microbe, parasite or virus in culture; type: cell-based
HRV8(MRH) = experiment: Anti-rhinovirus spectrum (MTT), HRV8; type: cell-based, human rhinovirus; design: Anti-Rhinovirus activity, HRV8: unit not given here; settings: HRV8
HRV13 (353) = experiment: Anti-rhinovirus spectrum (MTT), HRV13; type: cell-based, human rhinovirus; design: Anti-Rhinovirus activity, HRV13: unit not given here; settings: HRV13
HRV29 (5582) = experiment: Anti-rhinovirus spectrum (MTT), HRV29; type: cell-based, human rhinovirus; design: Anti-Rhinovirus activity, HRV29: unit not given here; settings: HRV29
HRV 89 (41617-Gallo) = experiment: Anti-rhinovirus activity (MTT), HRV89; type: cell-based, human rhinovirus; design: Anti-Rhinovirus activity, HRV89: unit not given here; settings: for IC50 HRV89: HeLa (Ohio strain) cells, MTT method, 33° C.
HRV32 (363) = experiment: Anti-rhinovirus spectrum (MTT), HRV32; type: cell-based, human rhinovirus; design: Anti-Rhinovirus activity, HRV32: unit not given here; settings: HRV32
HRV36 (342H) = experiment: Anti-rhinovirus spectrum (MTT), HRV36; type: cell-based, human rhinovirus; design: Anti-Rhinovirus activity, HRV36: unit not given here; settings: HRV36
HRV1A (E28) = experiment: Anti-rhinovirus activity (MTT), HRV1A; type: cell-based, human rhinovirus; design: Anti-Rhinovirus activity, HRV1A: unit not given here; settings: for IC50 HRV 1A: HeLa (Ohio strain) cells, MTT method, 33° C.
HeLa (Ohio strain)cells = experiment: Cytotoxicity (MTT, without virus), HeLa(Ohio); settings: HeLa(Ohio), no virus, incubated for 4 days
HRV33 (1200) = experiment: Anti-rhinovirus spectrum (MTT), HRV33; type: cell-based, human rhinovirus; design: Anti-Rhinovirus activity, HRV33: unit not given here; settings: HRV33

CCn1c2c(c(=O)c3cc(C(C)C)ccc31)Cc1ccccc1-2.Cl [Compound B3]
Anti-Rhinovirus activity, HRV39 (HRV39 (209)): 1.7
IC50 CB4 [1]: 0.82 µg/mL
Anti-Rhinovirus activity, HRV61 (HRV61 (6669-CV39)): 0.80
Anti-Rhinovirus activity, HRV50 (HRV50(A2#58)): 0.20
Anti-Rhinovirus activity, HRV5 (HRV5): 0.36
IC50 Echo 11 [2]: 0.35 µg/mL
Anti-Rhinovirus activity, Clinical isolated strain [3]: 1.9
Anti-Rhinovirus activity, HRV21 (HRV21 (47)): 0.20
Cytotoxicity CC50 HeLa-S3 (HeLa-S3 cells): >4 µg/mL
Anti-Rhinovirus activity, HRV2 (HRV 2 (HGP)): 0.54
IC50 HRV2 (HRV 2 (HGP)): 0.54 µg/mL
Anti-Rhinovirus activity, HRV10 (HRV10 (204-CV14)): 1.8
IC50 CA7 [4]: 2.1 µg/mL
Anti-Rhinovirus activity, HRV1B [5]: 0.30
IC50 HRV1B [5]: 0.30 µg/mL
Anti-Rhinovirus activity, HRV31 (HRV31 (41F)): 0.29
Anti-Rhinovirus activity, HRV41 (HRV41 (56110)): 0.20
Anti-Rhinovirus activity, HRV14 (HRV14 (1059)): 0.74
IC50 HRV 14 (HRV14 (1059)): 0.74 µg/mL
Cytotoxicity CC50 HeLa (HeLa cells): >4 µg/mL
Anti-Rhinovirus activity, HRV16 (HRV16 (11757)): 2.3
Anti-Rhinovirus activity, HRV3 (HRV3(FEB)): 2.9
IC50 Polio 1 [6]: 0.72 µg/mL
Anti-Rhinovirus activity, HRV8 (HRV8(MRH)): 0.46
Anti-Rhinovirus activity, HRV13 (HRV13 (353)): 0.17
Anti-Rhinovirus activity, HRV29 (HRV29 (5582)): 1.5
Anti-Rhinovirus activity, HRV89 (HRV 89 (41617-Gallo)): 0.57
IC50 HRV89 (HRV 89 (41617-Gallo)): 0.57 µg/mL
Anti-Rhinovirus activity, HRV32 (HRV32 (363)): 0.61
Anti-Rhinovirus activity, HRV36 (HRV36 (342H)): 0.30
Anti-Rhinovirus activity, HRV1A (HRV1A (E28)): 2.6
IC50 HRV 1A (HRV1A (E28)): 2.6 µg/mL
Cytotoxicity CC50 HeLa(Ohio) (HeLa (Ohio strain)cells): >4 µg/mL
Anti-Rhinovirus activity, HRV33 (HRV33 (1200)): 0.20

CCn1c2c(c(=O)c3cc(C(C)C)ccc31)Cc1cc(OC)ccc1-2 [Compound B10]
Anti-Rhinovirus activity, HRV39 (HRV39 (209)): 0.39
IC50 CB4 [1]: 0.57 µg/mL (≈ 1.71 µM)
Anti-Rhinovirus activity, HRV61 (HRV61 (6669-CV39)): 0.24
Anti-Rhinovirus activity, HRV50 (HRV50(A2#58)): 0.10
Anti-Rhinovirus activity, HRV5 (HRV5): 0.24
IC50 Echo 11 [2]: 0.14 µg/mL (≈ 0.42 µM)
Anti-Rhinovirus activity, Clinical isolated strain [3]: 0.75
Anti-Rhinovirus activity, HRV21 (HRV21 (47)): 0.16
Cytotoxicity CC50 HeLa-S3 (HeLa-S3 cells): >2.5 µg/mL
Anti-Rhinovirus activity, HRV2 (HRV 2 (HGP)): 0.16
IC50 HRV2 (HRV 2 (HGP)): 0.16 µg/mL (≈ 0.48 µM)
Anti-Rhinovirus activity, HRV10 (HRV10 (204-CV14)): 0.41
IC50 CA7 [4]: 1.4 µg/mL (≈ 4.2 µM)
Anti-Rhinovirus activity, HRV1B [5]: 0.25
IC50 HRV1B [5]: 0.25 µg/mL (≈ 0.75 µM)
Anti-Rhinovirus activity, HRV31 (HRV31 (41F)): 0.15
Anti-Rhinovirus activity, HRV41 (HRV41 (56110)): 0.007
Anti-Rhinovirus activity, HRV14 (HRV14 (1059)): 0.52
IC50 HRV 14 (HRV14 (1059)): 0.52 µg/mL (≈ 1.56 µM)
Cytotoxicity CC50 HeLa (HeLa cells): >2.5 µg/mL
Anti-Rhinovirus activity, HRV16 (HRV16 (11757)): 0.57
Anti-Rhinovirus activity, HRV3 (HRV3(FEB)): 0.48
IC50 Polio 1 [6]: 0.17 µg/mL (≈ 0.51 µM)
Anti-Rhinovirus activity, HRV8 (HRV8(MRH)): 0.20
Anti-Rhinovirus activity, HRV13 (HRV13 (353)): 0.12
Anti-Rhinovirus activity, HRV29 (HRV29 (5582)): 0.44
Anti-Rhinovirus activity, HRV89 (HRV 89 (41617-Gallo)): 0.33
IC50 HRV89 (HRV 89 (41617-Gallo)): 0.33 µg/mL (≈ 0.99 µM)
Anti-Rhinovirus activity, HRV32 (HRV32 (363)): 0.36
Anti-Rhinovirus activity, HRV36 (HRV36 (342H)): 0.17
Anti-Rhinovirus activity, HRV1A (HRV1A (E28)): 1.9
IC50 HRV 1A (HRV1A (E28)): 1.9 µg/mL (≈ 5.7 µM)
Cytotoxicity CC50 HeLa(Ohio) (HeLa (Ohio strain)cells): >2.5 µg/mL
Anti-Rhinovirus activity, HRV33 (HRV33 (1200)): 0.11
